Patent publication US20230139543A1, “COMPOUNDS FOR USE IN A METHOD OF TREATING, PREVENTING AND/OR REDUCING THE SYMPTOMS OF PAIN” (The Beckley Foundation, priority 2020, published 2023)
“Also recorded” adds a separate entry of the source.

Tests used:
healthy participants [1] = assay: Cold Pressor Test (CPT), placebo-controlled trial; type: in vivo, human; conditions: single oral dose 20 μg LSD vs placebo, 1.5 and 5 hours post treatment
Protocol: (§1) Twenty-four healthy participants (12 male, 12 female) participated in a randomized, double-blind, placebo-controlled, within-subject study in which they received single oral doses of 20 μg LSD (hydrate) and placebo on 4 separate test days. A minimum washout of 5 days proceeded in between to avoid carry-over effects. Treatment orders were randomly assigned to participants according to a balanced block design. LSD was formulated as a solution of 25 μg LSD base in 1 ml 96% ethanol according to GMP and administered orally. LSD doses (0.8 ml for 20 μg LSD) were supplemented with an ethanol solution up to a total volume 1 ml and administered with a syringe under the tongue. Placebo consisted of a 1 ml ethanol solution only. Treatments were administered at 10 AM.
(§2) At 1.5 and 5 hours post treatment, participants conducted a Cold Pressor Test (further described below). The Brief Symptom Inventory and the Clinician Administered Dissociation State Scale (CADSS) were administered prior to treatment administration (baseline) and at the end of a test day, i.e. at 6 hours post dosing. Vital signs were recorded at baseline, every 30 minutes during the first three hours after dosing, and at every hour thereafter. Blood samples were collected at every hour. Participants resided in a secluded room that contained a bed, table and chairs. Standardized lunches were provided around 12 AM.
The CPT was used to induce a painful sensation according to previously validated procedure (Smeets et al. Psychoneuroend. 2012, 37, 1998-2008). The CPT is the most commonly used test to induce conditioned pain modulation and to evaluate analgesic properties such as pain tolerance in healthy subjects (see, for instance, Okkerse et al. Br J Clin Pharmacol. 2017, 83(5), 976-990; Oaks et al. Discov Med. 2018, 26(144), 197-206). […]
A water tank was filled with water that was cooled to 3° C. […] Dependent measures of the CPT included pain tolerance (sec) and subjective ratings of painfulness, unpleasantness and stress as assessed 10 cm visual analogue scales. Water temperature at onset and completion of the CPT were assessed as control measure.
(§3) Analyses were carried out by means of the SPSS 25 program series to investigate whether the effects of LSD doses differed from those of placebo. CPT parameters and baseline adjusted parameters of vital signs were analysed using a three factor ANOVA to assess main effects of Treatment, Time after treatment and Participant as well as the interaction Treatment×Time after treatment. […]

[2] = Pharmacokinetics: LSD plasma levels by UHPLC-MS/MS; type: in vivo; conditions: both sexes, human, single oral dose 20 μg LSD, read-out: mean (SD) plasma LSD concentration
Protocol: as §1
At 1.5 and 5 hours post treatment, participants conducted a Cold Pressor Test (further described below). […] Vital signs were recorded at baseline, every 30 minutes during the first three hours after dosing, and at every hour thereafter. […]
Blood samples were centrifuged, and plasma was frozen at −20° C. until analysis for pharmacokinetic assessments. LSD plasma levels were analysed by ultra-high-performance liquid chromatography tandem mass spectrometry (UHPLC-MS/MS) as previously described previously. PK Samples with a LSD concentration below […] were re-analysed by a different extraction procedure. […]

healthy participants [3] = assay: Vital signs (heart rate, blood pressure); type: in vivo, human; conditions: single oral dose 20 μg LSD vs placebo; data not shown
Protocol: as §1, §2
Heart rate (bpm) and blood pressure (mmHg) were repeatedly assessed using an Omron M6 (HEM-7321-E, Omron Healthcare Europe By) device.
as §3, with “treatment. Mean contrast (LSD dose versus placebo) tests were conducted for measuring the significance of individual dose effects, relative to placebo.” for “treatment.”

## CCN(CC)C(=O)[C@@H]1C=C2c3cccc4[nH]cc(c34)C[C@H]2N(C)C1 [LSD, (D)-lysergic acid diethylamide]
Healthy participants [1]
  stress during the CPT (10 cm visual analogue scale): did not lead to a significant change; also recorded: not affected
Healthy participants [1]; p=0.006
  pain tolerance during the CPT: significant increase; also recorded: significantly increased
Healthy participants [1]; p=0.008
  unpleasantness during the CPT (10 cm visual analogue scale): significant decrease; also recorded: decreased
Healthy participants [1]; p=0.012
  painfulness during the CPT (10 cm visual analogue scale): significant decrease; also recorded: decreased
[2]; 1.5 hours after administration
  concentration at 1.5 h: 0.482 ng/mL
[2]; 6 hours post treatment
  concentration at 6 h: 0.223 ng/mL
Healthy participants [3]
  diastolic blood pressure: slightly increased
  heart rate: not affected
  systolic blood pressure: slightly increased
